Assay results: patent US8765908B2, “Compositions for improving bone mass” (The UAB Research Foundation, priority 2010, dated 2014)
“Also recorded” adds a separate entry of the source.

Legend:
[1] = system: primary BMMs; test: In vitro osteoclastogenesis assay (TRAP staining); type: cell-based, mouse; conditions: TRAP stain
Experimental: Primary BMMs were cultured in 24-well tissue culture plates (5×10^4 cells/well) with a-MEM containing 10% heat-inactivated FBS in the presence of 0.02 volume of culture supernatant of M-CSF-producing cells (final M-CSF concentration 44 ng/ml) (Takeshita et al., 2000) and 100 ng of GST-RANKL (Lam et al., 2000). […]
293GPG cells were cultured in DMEM with 10% HI-FBS supplemented with tetracycline, puromycin, G418 and penicillin/streptomycin as previously described {2222). Plat-E cells were cultured in DMEM with 10% HI-FBS supplemented with puromycin, blasticidin and penicillin/streptomycin as previously described {Morita, 2000 3155/id}. The retroviral vectors were transiently transfected into 293GPG cells or Plat-E cells using Lipofectamine Plus Reagent (Invitrogen). Virus supernatant was collected at 48, 72 and 96 h after transfection. Cells were then infected with virus for 24 hours in the presence of M-CSF (220 ng/ml) and 8 μg/ml polybrene. Cells were further cultured in the presence of M-CSF (220 ng/ml) and 2 μg/ml puromycin for selection and expansion of transduced cells. Selected cells were subsequently used for various studies.
A scrambled siRNA sequence was designed to use as control (FIG. 3A). BMMs were uninfected or infected with retrovirus expressing scrambled RNA or RYBP siRNA. […]

[2] = system: RYBP; test: Western blot of RYBP expression in retrovirally infected BMMs; type: cell-based, mouse; conditions: BMMs infected with retrovirus expressing siRNA; anti-RYBP Western blot
Experimental: Western blot analysis was performed as previously described (Xu et al., 2006; Liu et al., 2004). RAW264.7 cells cultured in DMEM containing 10% HI-FBS and penicillin/streptomycin were treated with RANKL (100 ng/ml) for various times before being lysed for Western blot analysis with anti-RYBP antibody from Abcam Inc (Cambridge, Mass.). Primary BMMs were normally cultured in α-MEM containing 10% HI-FBS and penicillin/streptomycin in the presence of M-CSF (44 ng/ml). Uninfected BMMs or BMMs infected with retrovirus encoding siRNA and/or tagged-RYBP were cultured in the presence of M-CSF (44 ng/ml) with or without RANKL (100 ng/ml) for various times and then lysed for Western blot analysis. For Western blot analysis of IP complex, all 35 μl of the eluted proteins from each IP assay was loaded for Western blot analysis with anti-HA antibody (Clontech Laboratories, Inc), anti-Myc antibody (Clontech Laboratories, Inc), anti-RYBP (Abcam Inc) antibody and anti-β-actin antibody (Santa Cruz Biotechnology).
293GPG cells were cultured in DMEM with 10% HI-FBS supplemented with tetracycline, puromycin, G418 and penicillin/streptomycin as previously described {2222). Plat-E cells were cultured in DMEM with 10% HI-FBS supplemented with puromycin, blasticidin and penicillin/streptomycin as previously described {Morita, 2000 3155/id}. […]

[3] = target: T1, 49-aa RANK segment (residues 498-546) containing the IVVY motif (Mus musculus, UniProt O35305); test: Two-hybrid screen of osteoclast precursor cDNA library; type: binding; conditions: yeast AH109, medium stringency
T1 construct: expressed in transfected cells; host or cells: yeast strain AH109
T1 sequence (O35305 498-546): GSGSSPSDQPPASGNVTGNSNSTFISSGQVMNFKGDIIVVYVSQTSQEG
Excerpt: An osteoclast precursor cDNA library was constructed using CloneMiner™ cDNA Library Construction System from Invitrogen (Carlsbad, Calif.). Briefly, mRNA was isolated from mouse primary BMMs and used as template for cDNA synthesis. Synthesized cDNA was size fractionated by column chromatography and the desired size of cDNA (>500 bp) was pooled and cloned into pDONOR™222 vector with BP Clonase™ to make Osteoclast Precursor cDNA Entry Library. pGBKT7 AD Vector of MATCHMAKER Two-Hybrid System 3 (Invitrogen) was converted to a Gateway® destination vector using Gateway® Vector Conversion System (Invitrogen). The whole set of cDNA clones was then transferred from the Osteoclast Precursor cDNA Entry Library into the modified pGBKT7 AD Vector to prepare an Osteoclast Precursor Two-Hybrid cDNA Library.
A 49-aa RANK segment (residues 498-546) containing the IVVY (SEQ ID NO: 4) motif (residues 535-538) was used as bait in the two-hybrid screening. A mouse cDNA region encoding this 49-aa RANK fragment was cloned in frame into pGBKT7 DNA-BD Vector of the MATCHMAKER Two-Hybrid System 3 (Invitrogen). The resulting plasmid was named as pGBKT7 DNA-BD-RANK. […]

For “RYBP siRNA: retrovirally expressed siRNA targeting the RYBP mRNA region encoding DPPSEA (AGCUUCACUAGGAGGAUCU)”, the osteoclastogenesis ([1]; infected BMMs treated with M-CSF (44 ng/ml) and RANKL (100 ng/ml) for 4 days) was “inhibited osteoclastogenesis” and the RYBP expression [2] was “significantly suppressed RYBP expression; also recorded: dramatically knocked down endogenous RYBP expression”.

B1: RYBP-HA: WT RYBP with HA tag at C-terminus, siRNA target region silently mutated (protein, UniProt Q8N488 1-228, looked up)
RING1 and YY1-binding protein: MTMGDKKSPTRPKRQAKPAADEGFWDCSVCTFRNSAEAFKCSICDVRKGTSTRKPRINSQLVAQQVAQQYATPPPPKKEKKEKVEKQDKEKPEKDKEISPSVTKKNTNKKTKPKSDILKDPPSEANSIQSANATTKTSETNHTSRPRLKNVDRSTAQQLAVTVGNVTVIITDFKEKTRSSSTSSSTVTSSAGSEQQNQSSSGSESTDKGSSRSSTPKGDMSAVNDESF
modifications: C-terminal HA tag
notes: WT RYBP with HA tag at C-terminus, siRNA target region silently mutated
For B1, the rescue of osteoclastogenesis ([1]; BMMs co-infected with RYBP siRNA retrovirus, M-CSF and RANKL 4 days) was “effectively rescued osteoclastogenesis”.

B2: RYBP: RING1A and YY1 binding protein, amino acid sequence SEQ ID NO:2 (protein, listed as Mus sp.)
chain: MTMGDKKSPTRPKRQAKPAADEGFWDCSVCTFRNSAEAFKCSICDVRKGTSTRKPRINSQLVAQQVAQQYATPPPPKKEKKEKVEKPDKEKPEKDKDISPSVTKKNTNKKTKPKSDILKDPPSEANSIQSANATTKTSETNHTSRPRLKNVDRSTAQQLAVTVGNVTVIITDFKEKTRSSSTSSSTVTSSAGSEQQNQSSSGSESTDKGSSRSSTPKGDMSAVNDESF
For B2, the “affinity for the bait (time a clone takes to become blue)” value [3] was “highest affinity for the bait”.
